In patent publication US20150315241A1, “Antibiotic Peptides” (priority 2007, published 2015):
≈ marks a conversion by molar mass, not a printed value. Read-outs that look alike come from different tables or passages of the source. Where a SMILES comes first, the peptide text is derived from it. [ ]: non-standard residue; d: D form. Hyp = O=C(O)[C@@H]1C[C@@H](O)CN1; NMeL = CN[C@@H](CC(C)C)C(=O)O; Orn = NCCC[C@H](N)C(=O)O

What was measured:
E. coli BL 21 AI = test: Growth inhibition assay (MIC); assay type: cell-based, Escherichia coli; details: 1% TSB, 37° C., 20 hrs
In short: (§1)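 Peptides were serially diluted two-fold in 1% TSB, giving final concentrations from 125 μg/mL down to 60 ng/mL, and mixed with overnight bacterial culture adjusted to 5×10^6 CFU/mL in 1% TSB. After 20 hrs at 37 °C, growth was read as absorbance at 595 nm, in triplicate, with sterile water as negative control.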

S. typhi S5 = assay type: cell-based, Salmonella typhi
In short: (§2)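 MIC by growth inhibition: overnight NB culture → 5×10^6 CFU/mL in 1% TSB; peptide 2-fold series, final 125 μg/mL to 60 ng/mL; 37° C., 20 hrs; OD595. n=3.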

K. pneumonia 681 = assay type: cell-based, Klebsiella pneumoniae
Procedure: (§3) The minimal inhibition concentrations (MIC) of the apidaecin-derived peptides and peptide-derivatives were determined by a growth inhibition assay using a serial peptide dilution in sterilized round-bottom 96-well plates (polystyrene, U-bottom, Greiner Bio-One GmbH) with a final volume of 100 μL per well. The bacteria, e.g., E. coli BL21 A1, were grown in nutrient broth (NB, Carl Roth GmbH+Co. KG, Karlsruhe, Germany) at 37° C. over night. To each well of the 96-well plate, 50 μL of the overnight culture adjusted to 5×10^6 CFU/mL in 1% TSB were added. Lyophilized peptides and peptidomimetics were dissolved in 1% TSB (tryptic soy broth) or water to give a final concentration of 250 μg/mL. Fifty μL of the peptide or peptidomimetics solution were added to the first well of a row on the plate and mixed. Fifty μL of the first well containing the peptide solution were transferred to the second well, mixed and again 50 μL transferred to the next well and so on. Thereby, a two-fold dilution series was obtained starting at 250 μg/mL in the first well down to 120 ng/mL in the 12th well of a row giving a final peptide or peptidomimetics concentration from 125 μg/mL (well 1) to 60 ng/mL (well 12). Plates were incubated at 37° C. for 20 hrs. The absorbance was measured at 595 nm using a TECAN micro plate spectrophotometer (Tecan, Germany). All peptides and peptidomimetics were measured in triplicates. Sterilized water was used as a negative control.
(§4) The bacteria strains were tested: • Eschericha coli 1103, 10233, BL 21 AI, DC 2, • Klebsiella pneumoniae 681, • Micrococcus luteus ATCC 10240, • Mycobacterium vaccae • Bactillus subtillis 347.

[1] = test system: S. enterica subsp. Enterica serovar. typhi G10215 ATCC 700408; assay type: cell-based, Salmonella enterica
In short: as §2

M. luteus ATCC 10240 = assay type: cell-based, Micrococcus luteus
In short: as §1

E. coli 45849 = test: Growth inhibition assay (MIC); assay type: cell-based, Escherichia coli; details: multidrug resistant strain; 1% TSB, 37° C., 20 hrs
In short: as §2

E. coli D31 = assay type: cell-based, Escherichia coli
In short: as §2

B. subtilis 347 = assay type: cell-based, Bactillus subtillis
Procedure: as §3, §4

[2] = test system: K. Pneumonia K6, ATCC 700603; test: Growth inhibition assay (MIC); assay type: cell-based, Klebsiella pneumoniae; details: multidrug resistant strain; 1% TSB, 37° C., 20 hrs
In short: as §2

K. Pneumonia 123132 = test: Growth inhibition assay (MIC); assay type: cell-based, Klebsiella pneumoniae; details: multidrug resistant strain; 1% TSB, 37° C., 20 hrs
In short: as §2

E. coli 10233 = assay type: cell-based, Escherichia coli
Procedure: as §3, §4

E. coli 1103 = assay type: cell-based, Escherichia coli
Procedure: as §3, §4

[3] = test system: R. radiobatter ATCC 15955; test: Growth inhibition assay (MIC); assay type: cell-based, Rhizobium radiobacter; details: multidrug resistant strain; 1% TSB, 37° C., 20 hrs
Procedure: as §3
The following multidrug resistant bacteria strains were tested: • Eschericha coli 45849 and D31, • Klebsiella pneumoniae 123132 and K6, • Salmonella typhi S5 and Salmonella enterica subsp. enterica serovar Typhimurium (ATCC 700408), • Rhizobium radiobacter (ATCC 15955 deposited as Agrobacterium tumefaciens).

[4] = multidrug resistant strain, 1% TSB, 37° C., 20 hrs

85 (GNNRPVYIPQPRPPHPRL) [compound 85]
MIC E. coli BL 21 AI (E. coli BL 21 AI): 0.24 µg/mL
MIC S. typhi S5 (S. typhi S5; [4]): 0.5 µg/mL
MIC K. pneumonia 681 (K. pneumonia 681; 1% TSB, 37° C., 20 hrs): 31.25 µg/mL
MIC S. enterica subsp. Enterica serovar. typhi G10215 ATCC 700408 [1, 4]: 0.5 µg/mL
MIC M. luteus ATCC 10240 (M. luteus ATCC 10240; 1% TSB, 37° C., 20 hrs): 15.63 µg/mL
MIC E. coli 45849 (E. coli 45849): 2 µg/mL
MIC E. coli D31 (E. coli D31; [4]): 16 µg/mL
MIC B. subtilis 347 (B. subtilis 347; 1% TSB, 37° C., 20 hrs): >125 µg/mL
MIC K. Pneumonia K6, ATCC 700603 [2]: 64 µg/mL
MIC K. Pneumonia 123132 (K. Pneumonia 123132): 16 µg/mL
MIC E. coli 10233 (E. coli 10233; 1% TSB, 37° C., 20 hrs): 1.95 µg/mL

135 (PEG3000-[Orn]NNRPVYIPRPRPPHPRL-NH2) [compound 135]
MIC E. coli BL 21 AI (E. coli BL 21 AI): >125 µg/mL
MIC K. pneumonia 681 (K. pneumonia 681; 1% TSB, 37° C., 20 hrs): >125 µg/mL
MIC M. luteus ATCC 10240 (M. luteus ATCC 10240; 1% TSB, 37° C., 20 hrs): 8 µg/mL
MIC B. subtilis 347 (B. subtilis 347; 1% TSB, 37° C., 20 hrs): >125 µg/mL
MIC E. coli 10233 (E. coli 10233; 1% TSB, 37° C., 20 hrs): >125 µg/mL
MIC E. coli 1103 (E. coli 1103; 1% TSB, 37° C., 20 hrs): >125 µg/mL

CC[C@H](C)[C@H](NC(=O)[C@H](Cc1ccc(O)cc1)NC(=O)[C@@H](NC(=O)[C@@H]1CCCN1C(=O)[C@H](CCCNC(=N)N)NC(=O)[C@H](CC(N)=O)NC(=O)[C@H](CC(N)=O)NC(=O)CN)C(C)C)C(=O)N1CCC[C@H]1C(=O)N[C@@H](CCC(N)=O)C(=O)N1CCC[C@H]1C(=O)N[C@@H](CCCNC(=N)N)C(=O)N1CCC[C@H]1C(=O)N1CCC[C@H]1C(=O)N[C@@H](Cc1c[nH]cn1)C(=O)N1CCC[C@H]1C(=O)N[C@@H](CCCNC(=N)N)C(=O)N(C)[C@@H](CC(C)C)C(N)=O [compound 33] (H-GNNRPVYIPQPRPPHPR[NMeL]-NH2)
MIC E. coli BL 21 AI (E. coli BL 21 AI): 15.63 µg/mL (≈ 7.37 µM)
MIC K. pneumonia 681 (K. pneumonia 681; 20 h): >125 µg/mL
MIC S. enterica subsp. Enterica serovar. typhi G10215 ATCC 700408 ([1]; ATCC 700408, 20 h): 8 µg/mL (≈ 3.77 µM)
MIC M. luteus ATCC 10240 (M. luteus ATCC 10240; ATCC 10240, 20 h): 31.25 µg/mL (≈ 14.7 µM)
MIC E. coli D31 (E. coli D31; D31, 20 h): 32 µg/mL (≈ 15.1 µM)
MIC B. subtilis 347 (B. subtilis 347; 347, 20 h): >125 µg/mL
MIC K. Pneumonia K6, ATCC 700603 [2]: >128 µg/mL
MIC E. coli 10233 (E. coli 10233; 10233, 20 h): 15.63 µg/mL (≈ 7.37 µM)
MIC E. coli 1103 (E. coli 1103; 1103, 20 h): 62.5 µg/mL (≈ 29.5 µM)

CC[C@H](C)[C@H](NC(=O)[C@H](Cc1ccc(O)cc1)NC(=O)[C@@H](NC(=O)[C@@H]1CCCN1C(=O)[C@H](CCCNC(=N)N)NC(=O)[C@H](CC(N)=O)NC(=O)[C@H](CC(N)=O)NC(=O)[C@H](CCCN)NC(C)=O)C(C)C)C(=O)N1CCC[C@H]1C(=O)N[C@@H](CCCNC(=N)N)C(=O)N1C[C@H](O)C[C@H]1C(=O)N[C@@H](CCCNC(=N)N)C(=O)N1CCC[C@H]1C(=O)N1CCC[C@H]1C(=O)N[C@@H](Cc1c[nH]cn1)C(=O)N1CCC[C@H]1C(=O)N[C@@H](CCCNC(=N)N)C(=O)N[C@@H](CC(C)C)C(N)=O [compound 40] (Ac-[Orn]NNRPVYIPR[Hyp]RPPHPRL-NH2)
MIC S. typhi S5 (S. typhi S5; S5, 20 h): <0.5 µg/mL
MIC R. radiobatter ATCC 15955 [3]: 0.33 µg/mL (≈ 0.147 µM)
MIC K. pneumonia 681 (K. pneumonia 681; 20 h): 3.91 µg/mL (≈ 1.74 µM)
MIC S. enterica subsp. Enterica serovar. typhi G10215 ATCC 700408 ([1]; ATCC 700408, 20 h): 4 µg/mL (≈ 1.78 µM)
MIC E. coli 45849 (E. coli 45849): 1 µg/mL (≈ 0.444 µM)
MIC E. coli D31 (E. coli D31; D31, 20 h): 8 µg/mL (≈ 3.55 µM)
MIC B. subtilis 347 (B. subtilis 347; 347, 20 h): 125 µg/mL (≈ 55.5 µM)
MIC K. Pneumonia K6, ATCC 700603 [2]: 16 µg/mL (≈ 7.11 µM)
MIC K. Pneumonia 123132 (K. Pneumonia 123132): 4 µg/mL (≈ 1.78 µM)
MIC E. coli 10233 (E. coli 10233; 10233, 20 h): 1.95 µg/mL (≈ 0.866 µM)
MIC E. coli 1103 (E. coli 1103; 1103, 20 h): 3.91 µg/mL (≈ 1.74 µM)
